Test results reported in US8691796B2, “Pharmaceutical composition and method for inhibiting inflammation” (China Medical University, priority 2010, dated 2014).

Experiments:
Type in all cases: cell-based, human
TNF-α = TNF-α concentration in supernatant of treated FLS (sandwich ELISA); details: FLS from patients with rheumatoid arthritis, treated 24 hours, mixture = 100 μg hyaluronic acid + 5 micro-mole lovastatin in 1 ml, control group 347.00
Description: (§1) Fibroblast-like synoviocytes (FLS) from seven patients with rheumatoid arthritis (RA) were collected and incubated. First, the joint synovia from the patients were cut into small pieces and suspended in a DMEM medium (Dulbecco modified eagle's medium, comprising 1.5 g/L sodium bicarbonate (S6297, Sigma-Aldrich Co. St Louis, Mo., USA), 1% penicillin-streptomycin-neomycin (P4083, Sigma-Aldrich Co.), and 10% fetal bovine serum (04-001-1A, Biological Industries, Grand Island, N.Y., USA)), and were incubated in the environment under 37° C., 5% CO2 for three days.
(§2) The non-adherent cells were washed out with a phosphate buffer solution (PBS), the medium was refreshed, and the retained adherent cells were cultivated for two weeks. […]
(§3) The concentrations of two RA-related factors, TNF-α (the standard sample was purchased from eBioscience, Ltd., 88-7340) and IL-8 (the standard sample was purchased from R&D systems, Inc., USA, DY208), in the supernatants collected from Experiment B were measured using a sandwich binding protein assay kit or sandwich ELISA kits (purchased from eBioscience, Ltd. and R&D systems, Inc.) according to the manufacturer's manual and standard curves to observe the expression level of the factors, thereby determining the inflammation condition of the cells. Each sample was analyzed twice, and an ELISA reader (Sunrise Remote, TECAN) was used to conduct the measurement. […]

IL-8 = IL-8 concentration in supernatant of treated FLS (sandwich ELISA); details: FLS from patients with rheumatoid arthritis, treated 24 hours, mixture = 100 μg hyaluronic acid + 5 micro-mole lovastatin in 1 ml, control group 736.00
Description: The non-adherent cells were washed out with a phosphate buffer solution (PBS), the medium was refreshed, and the retained adherent cells were cultivated for two weeks. The above procedure was repeated three to six times, and the retained cells were FLS, which were used in the following experiments.
The FLS prepared from Experiment A were incubated in a medium containing no serum for 24 hours until the cells grew to a subconfluence state, and the cells were incubated in a DMEM medium containing 10% fetal bovine serum. […]

[1] = system: Fibroblast-like synoviocytes (FLS); experiment: Inflammation level of FLS judged from secreted TNF-α and IL-8; details: FLS from patients with RA, treated 24 hours; TNF-α and IL-8 versus control group / HA only
Description: as §1, §2, §3

| Compound | TNF-α concentration, Average concentration (TNF-α) [pg/mL] | IL-8 concentration, Average concentration (IL-8) [pg/mL] | inflammation level (effect of inhibiting the inflammation) [1] |
| --- | --- | --- | --- |
| CC[C@H](C)C(=O)O[C@H]1C[C@@H](C)C=C2C=C[C@H](C)[C@H](CC[C@@H]3C[C@@H](O)CC(=O)O3)[C@H]21 [HMG-CoA reductase inhibitor, Lovastatin] | 355.07 | 703.94 | – |
| hyaluronic acid [HA] | 296.46 | 353.40 | the inflammation level was lowered |
